pIC50: −log10 of the molar value.

What is called pIC50 is the IC50 on a negative log10 scale, so that one unit is a factor of ten.

activated ERK2, sequence (P28482 whole entry): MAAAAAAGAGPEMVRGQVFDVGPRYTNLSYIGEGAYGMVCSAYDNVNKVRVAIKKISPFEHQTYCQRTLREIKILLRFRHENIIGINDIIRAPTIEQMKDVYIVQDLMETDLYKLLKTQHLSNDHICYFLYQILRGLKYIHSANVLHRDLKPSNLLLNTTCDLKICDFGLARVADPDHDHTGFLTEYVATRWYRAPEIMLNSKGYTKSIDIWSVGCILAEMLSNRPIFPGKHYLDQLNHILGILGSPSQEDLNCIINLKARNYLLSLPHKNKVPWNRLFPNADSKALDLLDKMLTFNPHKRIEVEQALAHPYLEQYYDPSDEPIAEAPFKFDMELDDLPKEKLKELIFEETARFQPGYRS

In this assay the target is activated ERK2 (Homo sapiens (Human), UniProt P28482). Kind of assay: Activated ERK2 (20 pM) Kinase Assay (AlphaScreen, ERKtide phosphorylation). The class given is biochemical. The conditions noted are these: 0.02 nM ERK2, 400 nM ERKtide peptide, 35 μM ATP, 30 min preincubation. Here is the method: Activated ERK2 (20 pM) Kinase Assay:
The assay was carried out in 20 mM HEPES [pH 7.5], 5 mM MgCl2, 1 mM DTT, 0.01% Tween-20, 0.05% BSA using 0.02 nM ERK2, 400 nM ERKtide peptide and 35 μM ATP (all concentrations are final in the reaction) in a total volume of 10.25 μL. […] Compound dilution series were prepared in 100% DMSO. ERK2 was preincubated with compounds for 30 minutes at ambient temperature. Reaction was initiated by addition of a substrate cocktail of ERKtide peptide and ATP and was allowed to proceed for 4 hours at ambient temperature. Reaction was terminated by addition of 10 μL of a 2× stop buffer consisting of 100 mM Tris-Cl [pH 7.5], 25 mM EDTA, 0.01% Tween 20, 20 μg/mL of AlphaScreen Protein A Acceptor Beads, 20 μg/mL of Streptavidin Donor Beads (PerkinElmer, Waltham, Mass.), and 1:1000 dilution phospho-EGF Receptor (Thr669) antibody (Cat #8808, Cell Signaling Technology, Danvers, Mass.). Terminated reactions were read, after overnight incubation in the dark, on an EnVision Multilabel Plate Reader (PerkinElmer, Waltham, Mass.), with excitation and emission wavelengths set to 680 nm and 570 nm, respectively. IC50 values were determined using a four-parameter fit.
`NC[C@@H](NC(=O)c1ccc(-c2nc(C3CCOCC3)cnc2N)cc1F)c1cc(F)cc(I)c1` [Example 179, (S)—N-(2-amino-1-(3-fluoro-5-iodophenyl)ethyl)-4-(3-amino-6-(tetrahydro-2H-pyran-4-yl)pyrazin-2-yl)-2-fluorobenzamide] showed a pIC50 of 11.21.

On to `NC[C@@H](NC(=O)c1ccc(-c2nc(C3CCOCC3)cnc2N)cc1F)c1cc(F)cc(Br)c1` [Example 180, (S)—N-(2-amino-1-(3-bromo-5-fluorophenyl)ethyl)-4-(3-amino-6-(tetrahydro-2H-pyran-4-yl)pyrazin-2-yl)-2-fluorobenzamide], for which the pIC50 is 11.17.

The compound `NC[C@@H](NC(=O)c1ccc(-c2nc(C3CCOCC3)cnc2N)cc1F)c1cc(F)cc(Cl)c1` [Example 181, (S)—N-(2-amino-1-(3-chloro-5-fluorophenyl)ethyl)-4-(3-amino-6-(tetrahydro-2H-pyran-4-yl)pyrazin-2-yl)-2-fluorobenzamide] gave a negative logarithm of the IC50 (pIC50) of 10.92.

For `Nc1ncc([C@H]2CC[C@H](O)[C@@H](F)C2)nc1-c1ccc(C(=O)N[C@H](CO)c2cc(F)cc(Br)c2)c(F)c1` [Example 182, 4-(3-amino-6-((1S,3S,4S)-3-fluoro-4-hydroxycyclohexyl)pyrazin-2-yl)-N—((S)-1-(3-bromo-5-fluorophenyl)-2-hydroxyethyl)-2-fluorobenzamide], the pIC50 is 10.29.

Regarding `Nc1ncc([C@@H]2CC[C@@H](O)[C@H](F)C2)nc1-c1ccc(C(=O)N[C@H](CO)c2cc(F)cc(Br)c2)c(F)c1` [Example 183, 4-(3-amino-6-((1R,3R,4R)-3-fluoro-4-hydroxycyclohexyl)pyrazin-2-yl)-N—((S)-1-(3-bromo-5-fluorophenyl)-2-hydroxyethyl)-2-fluorobenzamide], the pIC50 was 10.24.

Compound `CNC[C@@H](NC(=O)c1ccc(-c2nc([C@H]3CC[C@H](O)[C@@H](F)C3)cnc2N)cc1F)c1cc(F)cc(Br)c1` [Example 184, 4-(3-amino-6-((1S,3S,4S)-3-fluoro-4-hydroxycyclohexyl)pyrazin-2-yl)-N—((S)-1-(3-bromo-5-fluorophenyl)-2-(methylamino)ethyl)-2-fluorobenzamide] gave a pIC50 of 10.58.

With `Nc1ncc([C@@H]2CC[C@H](O)[C@H](F)C2)nc1-c1ccc(C(=O)N[C@H](CO)c2cc(F)cc(Br)c2)c(F)c1` [Example 185, 4-(3-amino-6-((1R,3R,4S)-3-fluoro-4-hydroxycyclohexyl)pyrazin-2-yl)-N—((S)-1-(3-bromo-5-fluorophenyl)-2-hydroxyethyl)-2-fluorobenzamide], the pIC50 was 9.03.

`Nc1ncc([C@H]2CC[C@@H](O)[C@@H](F)C2)nc1-c1ccc(C(=O)N[C@H](CO)c2cc(F)cc(Br)c2)c(F)c1` [Example 186, 4-(3-amino-6-((1S,3S,4R)-3-fluoro-4-hydroxycyclohexyl)pyrazin-2-yl)-N—((S)-1-(3-bromo-5-fluorophenyl)-2-hydroxyethyl)-2-fluorobenzamide] had a pIC50 of 9.19.

`Nc1ncc([C@@H]2CC[C@@H](O)[C@@H](F)C2)nc1-c1ccc(C(=O)N[C@H](CO)c2cc(F)cc(Br)c2)c(F)c1` [Example 187, 4-(3-amino-6-((1R,3S,4R)-3-fluoro-4-hydroxycyclohexyl)pyrazin-2-yl)-N—((S)-1-(3-bromo-5-fluorophenyl)-2-hydroxyethyl)-2-fluorobenzamide]: the pIC50 is 10.44.

Consider `Nc1ncc([C@H]2CC[C@H](O)[C@H](F)C2)nc1-c1ccc(C(=O)N[C@H](CO)c2cc(F)cc(Br)c2)c(F)c1` [Example 188, 4-(3-amino-6-((1S,3R,4S)-3-fluoro-4-hydroxycyclohexyl)pyrazin-2-yl)-N—((S)-1-(3-bromo-5-fluorophenyl)-2-hydroxyethyl)-2-fluorobenzamide], for which the pIC50 was 10.33.

On to `Nc1ncc([C@H]2CC[C@H](O)[C@@H](F)C2)nc1-c1ccc(C(=O)N[C@H](CO)c2cc(F)cc(I)c2)c(F)c1` [Example 189, 4-(3-amino-6-((1S,3S,4S)-3-fluoro-4-hydroxycyclohexyl)pyrazin-2-yl)-2-fluoro-N—((S)-1-(3-fluoro-5-iodophenyl)-2-hydroxyethyl)benzamide], for which the pIC50 was 10.86.

The compound `Nc1ncc([C@@H]2CC[C@@H](O)[C@H](F)C2)nc1-c1ccc(C(=O)N[C@H](CO)c2cc(F)cc(I)c2)c(F)c1` [Example 190, 4-(3-amino-6-((1R,3R,4R)-3-fluoro-4-hydroxycyclohexyl)pyrazin-2-yl)-2-fluoro-N—((S)-1-(3-fluoro-5-iodophenyl)-2-hydroxyethyl)benzamide] had a pIC50 of 10.75.

With `Nc1ncc([C@H]2CC[C@H](O)CC2)nc1-c1ccc(C(=O)N[C@H]2C[C@@H]2c2ccccc2)c(F)c1` [Example 202, 4-(3-amino-6-((1r,4S)-4-hydroxycyclohexyl)pyrazin-2-yl)-2-fluoro-N-((1S,2R)-2-phenylcyclopropyl)benzamide], the pIC50 was 9.82.

`Nc1ncc([C@H]2CC[C@H](O)CC2)nc1-c1ccc(C(=O)N[C@@H]2C[C@H]2c2ccccc2)c(F)c1` [Example 203, 4-(3-amino-6-((1r,4R)-4-hydroxycyclohexyl)pyrazin-2-yl)-2-fluoro-N-((1R,2S)-2-phenylcyclopropyl)benzamide]: the pIC50 was 8.13.

Turning to `N#Cc1cc(-c2cc(C3CCOCC3)cnc2N)cc(F)c1C(=O)NCc1ccccc1` [Example 204, 4-(2-amino-5-(tetrahydro-2H-pyran-4-yl)pyridin-3-yl)-N-benzyl-2-cyano-6-fluorobenzamide], the pIC50 was 7.26.

`Cc1nn(C(F)F)cc1-c1cnc(N)c(-c2ccc(C(=O)N[C@H](CO)c3cc(F)cc(CF)c3)c(F)c2)c1` [Example 206, (S)-4-(2-amino-5-(1-(difluoromethyl)-3-methyl-1H-pyrazol-4-yl)pyridin-3-yl)-2-fluoro-N-(1-(3-fluoro-5-(fluoromethyl)phenyl)-2-hydroxyethyl)benzamide] gave a pIC50 of 10.98.

Consider `NC[C@@H](NC(=O)c1ccc(-c2nc(C3CCCCC3)cnc2N)cc1F)c1cccc(Cl)c1` [Example 228, (S)-N-(2-amino-1-(3-chlorophenyl)ethyl)-4-(3-amino-6-cyclohexylpyrazin-2-yl)-2-fluorobenzamide], for which the pIC50 was 10.30.

In turn, `Cn1nccc1-c1cnc(N)c(-c2ccc(C(=O)N[C@H](CN)c3cccc(Cl)c3)c(F)c2)c1` [Example 233, (S)-N-(2-amino-1-(3-chlorophenyl)ethyl)-4-(2-amino-5-(1-methyl-1H-pyrazol-5-yl)pyridin-3-yl)-2-fluorobenzamide] had a pIC50 of 10.68.

For `Cn1cc(-c2cnc(N)c(-c3ccc(C(=O)N[C@H](CO)c4cc(F)cc(CF)c4)c(F)c3)c2)cn1` [Example 240, (S)-4-(2-amino-5-(1-methyl-1H-pyrazol-4-yl)pyridin-3-yl)-2-fluoro-N-(1-(3-fluoro-5-(fluoromethyl)phenyl)-2-hydroxyethyl) benzamide], the pIC50 was 10.70.

Compound `Cn1cc(-c2cnc(N)c(-c3ccc(C(=O)N[C@H](CO)c4ccc(F)c(Cl)c4)c(F)c3)c2)cn1` [Example 241, (S)-4-(2-amino-5-(1-methyl-1H-pyrazol-4-yl)pyridin-3-yl)-N-(1-(3-chloro-4-fluorophenyl)-2-hydroxyethyl)-2-fluorobenzamide] gave a pIC50 of 9.03.

(Values after patent US9242996B2 (Novartis AG, priority 2013, dated 2016).)
